18 compounds from ChEMBL document CHEMBL3045163, “Synthesis of benzothiazole derivatives having acetamido and carbothioamido pharmacophore as anticonvulsant agents” (Med Chem Res, 2012) can be followed below.

Data set [1] has as its system Mus musculus. Nature of the data set: Anticonvulsant activity in ip dosed Mus musculus (mouse) assessed as protection against subcutaneous pentylenetetrazole-induced seizure after 0.5 hr. The class given is functional. To be noted: read-out: MED.
Data set [2] deals with Mus musculus. The data set is described as follows: Anticonvulsant activity in ip dosed Mus musculus (mouse) assessed as protection against maximal electroshock-induced seizure after 4 hr. The class given is functional. The settings on record: read-out: MED. In general terms: In the maximal electroshock model the usual endpoint is tonic extension of the hind limbs.
The subject of data set [3] is Mus musculus. Nature of the data set: Antidepressant activity in Mus musculus (mouse) assessed as immobility time at 100 mg/kg, ip administered 60 min before test measured during last 4 min of 6 min testing period. It is filed as functional. The settings on record: route intraperitoneal.
The subject of data set [4] is Mus musculus. The data set is described as follows: Anticonvulsant activity in ip dosed Mus musculus (mouse) assessed as protection against subcutaneous pentylenetetrazole-induced seizure after 4 hr. The class given is functional. The settings on record: read-out: MED.
Data set [5] deals with Mus musculus. The data set is described as follows: Neurotoxicity in ip dosed Mus musculus (mouse) assessed as motor impairment after 0.5 hr by rotorod test. The class given is toxicity, organism-based. To be noted: in vivo. In general terms: In the rotarod test animals must keep their balance on a rotating rod.
In data set [6] the test system is Mus musculus. The data set is described as follows: Neurotoxicity in ip dosed Mus musculus (mouse) assessed as motor impairment after 4 hr by rotorod test. The class given is toxicity, organism-based. The settings on record: in vivo.
The test system of data set [7] is Mus musculus. Nature of the data set: Anticonvulsant activity in ip dosed Mus musculus (mouse) assessed as protection against maximal electroshock-induced seizure after 0.5 hr. The class given is functional. To be noted: read-out: MED.
The nature of data set [8]: Octanol-phosphate buffer partition coefficient, log P of the compound. The class given is physicochemical.
Data set [9] has as its system Mus musculus. The data set is described as follows: Neurotoxicity in Mus musculus (mouse) assessed as motor impairment at 300 mg/kg, ip after 0.5 hr by rotorod test. To be noted: in vivo. More on the design: dose 300 mg/kg, route intraperitoneal. The class given is toxicity, organism-based.
Data set [10] has as its system Mus musculus. The data set is described as follows: Neurotoxicity in Mus musculus (mouse) assessed as motor impairment at 300 mg/kg, ip after 4 hr by rotorod test. It is filed as toxicity, organism-based. Further details: dose 300 mg/kg, route intraperitoneal. To be noted: in vivo.
The subject of data set [11] is Mus musculus. The data set is described as follows: Anticonvulsant activity in Mus musculus (mouse) assessed as protection against maximal electroshock-induced seizure at 300 mg/kg, ip after 4 hr. The class given is functional, organism-based. Further details: dose 300 mg/kg.
In data set [12] the test system is Mus musculus. The data set is described as follows: Anticonvulsant activity in Mus musculus (mouse) assessed as protection against subcutaneous pentylenetetrazole-induced seizure at 300 mg/kg, ip after 4 hr. The class given is functional, organism-based. More on the design: dose 300 mg/kg.
The subject of data set [13] is Mus musculus. Nature of the data set: Anticonvulsant activity in Mus musculus (mouse) assessed as protection against subcutaneous pentylenetetrazole-induced seizure at 300 mg/kg, ip after 0.5 hr. The class given is functional, organism-based. Further details: dose 300 mg/kg.
For data set [14], the system named is Mus musculus. Nature of the data set: Anticonvulsant activity in Mus musculus (mouse) assessed as protection against maximal electroshock-induced seizure at 300 mg/kg, ip after 0.5 hr. More on the design: dose 300 mg/kg. The class given is functional, organism-based.

Active and inactive are the calls of the source. The rule behind the calls is not given here.

With `NC(=O)N1c2ccccc2C=Cc2ccccc21` [CARBAMAZEPINE], the minimal effective dose came out at 100 mg/kg in the data set with Mus musculus [1], 100 mg/kg in the data set on Mus musculus [2], 100 mg/kg in the data set on Mus musculus [4] and 30 mg/kg with Mus musculus [7]. In addition, the Time in the data set with Mus musculus [3] is 179 s. For the same compound, the MED is 100 mg/kg in the data set on Mus musculus [5] and 300 mg/kg in the data set with Mus musculus [6].
With `O=C(Cn1ccnc1)Nc1nc2ccc(Cl)cc2s1`, the minimal effective dose with Mus musculus [1] was determined as 100 mg/kg; in the data set with Mus musculus [2] it was 30 mg/kg; in the data set on Mus musculus [4], 100 mg/kg; in the data set on Mus musculus [7] it was 30 mg/kg. Besides, the Time with Mus musculus [3] is 137 s. Moreover, in data set [8], the logP (as a rule, a log measure of how a compound divides between an organic and an aqueous phase) was determined as 2.14. For the same compound, the Activity result in the data set with Mus musculus [9] and in the data set on Mus musculus [10] was “Non-toxic” throughout.
In the case of `O=C(CN(c1ccccc1)c1ccccc1)Nc1nc2ccc(Cl)cc2s1`, the result in the data set with Mus musculus [11], with Mus musculus [12] and in the data set with Mus musculus [13] was inactive. Further, the Time in the data set with Mus musculus [3] is 196 s. In addition, in the data set with Mus musculus [5], the MED amounted to 300 mg/kg. Also, the logP in [8] came out at 6.12. In addition, the minimal effective dose with Mus musculus [7] is 300 mg/kg. In the data set on Mus musculus [10], the Activity entry was “Non-toxic”.
Turning to `O=C(CN1CCCCC1)Nc1nc2ccc(Cl)cc2s1`, the minimal effective dose in the data set with Mus musculus [1] amounted to 100 mg/kg; in the data set with Mus musculus [2], 100 mg/kg; with Mus musculus [7], 30 mg/kg. Further, the outcome in the data set on Mus musculus [12] was inactive. Further, the Time in the data set on Mus musculus [3] stood at 145 s. The compound further gave a logP in data set [8] of 3.16. Besides, the MED in the data set with Mus musculus [6] came to 300 mg/kg. Further, in the data set with Mus musculus [9], the Activity entry was “Non-toxic”.
With `S=C(N/N=C/c1ccccc1)Nc1nc2ccc(Cl)cc2s1`, the result with Mus musculus [14], in the data set on Mus musculus [12] and with Mus musculus [13] was inactive. The minimal effective dose in the data set on Mus musculus [2] is 300 mg/kg. Also, the Time in the data set on Mus musculus [3] stood at 162 s. Besides, the MED in the data set on Mus musculus [5] and in the data set on Mus musculus [6] was 300 mg/kg each time. The compound also had a logP in data set [8] of 4.86.
As to `O=C(CN1CCOCC1)Nc1nc2ccc(Cl)cc2s1`, the minimal effective dose with Mus musculus [1] was 100 mg/kg; with Mus musculus [2] it was 30 mg/kg; with Mus musculus [4], 100 mg/kg; with Mus musculus [7], 30 mg/kg. Further, the Time in the data set with Mus musculus [3] is reported as 140 s. For the same compound, in [8], the logP worked out at 2.32. The Activity result in the data set with Mus musculus [9] and with Mus musculus [10] was “Non-toxic” in each case.
For `O=C1NC(=O)C(c2ccccc2)(c2ccccc2)N1` [PHENYTOIN], the minimal effective dose with Mus musculus [2] and in the data set with Mus musculus [7] was 30 mg/kg throughout. Besides, the outcome with Mus musculus [12] and with Mus musculus [13] was inactive. In addition, the MED in the data set on Mus musculus [5] and in the data set with Mus musculus [6] was 100 mg/kg in each case.
With `Fc1ccc(/C=N/NC(=S)Nc2nc3ccc(Cl)cc3s2)cc1`, the minimal effective dose in the data set with Mus musculus [1] is 100 mg/kg; with Mus musculus [2], 30 mg/kg; with Mus musculus [4], 100 mg/kg; in the data set on Mus musculus [7], 30 mg/kg. In the data set with Mus musculus [3], the Time worked out at 188 s. Further, the MED in the data set on Mus musculus [5] and with Mus musculus [6] was 100 mg/kg throughout. In data set [8], the logP worked out at 5.22.
On to `O=C(CNc1ccc(Cl)cc1)Nc1nc2ccc(Cl)cc2s1`, for which the result in the data set with Mus musculus [11], with Mus musculus [12] and in the data set with Mus musculus [13] was inactive. Besides, in the data set on Mus musculus [3], the Time came out at 161 s. The same compound came in with a logP in data set [8] of 4.24. Further, the MED in the data set on Mus musculus [6] came to 100 mg/kg. Moreover, in the data set with Mus musculus [7], the minimal effective dose was 100 mg/kg. Further, the Activity entry with Mus musculus [9] is “Non-toxic”.
In the case of `S=C(N/N=C/c1ccccc1Cl)Nc1nc2ccc(Cl)cc2s1`, the outcome in the data set on Mus musculus [11], with Mus musculus [12] and in the data set on Mus musculus [13] was inactive. Also, the Time in the data set on Mus musculus [3] is reported as 177 s. This compound also came in with a logP in data set [8] of 5.46. In addition, the MED in the data set on Mus musculus [6] is 100 mg/kg. The minimal effective dose in the data set on Mus musculus [7] turned out to be 300 mg/kg. Further, in the data set on Mus musculus [9], the Activity entry was “Non-toxic”.
Turning to `S=C(N/N=C/c1ccc(Cl)cc1)Nc1nc2ccc(Cl)cc2s1`, the outcome in the data set on Mus musculus [11], in the data set with Mus musculus [12] and in the data set on Mus musculus [13] was inactive. Further, in the data set on Mus musculus [3], the Time worked out at 191 s. Moreover, the MED in the data set on Mus musculus [5] is 300 mg/kg. In addition, the logP in [8] turned out to be 5.52. The minimal effective dose in the data set on Mus musculus [7] was 300 mg/kg. Further, the Activity result in the data set with Mus musculus [10] was “Non-toxic”.
With `CC(C)(C)NCC(=O)Nc1nc2ccc(Cl)cc2s1`, the minimal effective dose was 100 mg/kg with Mus musculus [1], 100 mg/kg in the data set with Mus musculus [2], 300 mg/kg in the data set with Mus musculus [4] and 30 mg/kg in the data set on Mus musculus [7]. Further, the Time in the data set on Mus musculus [3] was found to be 129 s. In [8], this compound showed a logP of 3.02. The MED in the data set with Mus musculus [6] stood at 300 mg/kg. Moreover, the Activity entry in the data set with Mus musculus [9] was “Non-toxic”.
As for `O=C(Cn1ccc2ccccc21)Nc1nc2ccc(Cl)cc2s1`, the results for the minimal effective dose in the data set with Mus musculus [2], in the data set with Mus musculus [4] and in the data set on Mus musculus [7] were 300 mg/kg, 300 mg/kg and 100 mg/kg, respectively. In addition, the Time in the data set with Mus musculus [3] came to 152 s. Besides, the values for the MED in the data set on Mus musculus [5] and in the data set with Mus musculus [6] were 100 mg/kg and 300 mg/kg, respectively. Moreover, the result in the data set with Mus musculus [13] was inactive. In addition, the logP in data set [8] stood at 4.62.
In the case of `O=[N+]([O-])c1ccc(/C=N/NC(=S)Nc2nc3ccc(Cl)cc3s2)cc1`, the minimal effective dose was 300 mg/kg in the data set on Mus musculus [1], 300 mg/kg in the data set on Mus musculus [4] and 100 mg/kg in the data set on Mus musculus [7]. In addition, the result in the data set with Mus musculus [11] was inactive. Also, the Time in the data set on Mus musculus [3] was 157 s. Also, the MED in the data set with Mus musculus [5] and in the data set on Mus musculus [6] was 300 mg/kg throughout. The compound further displayed a logP in data set [8] of 4.68.
Consider `CN(C)c1ccc(/C=N/NC(=S)Nc2nc3ccc(Cl)cc3s2)cc1`, for which the outcome with Mus musculus [14], in the data set on Mus musculus [11], in the data set with Mus musculus [12] and in the data set with Mus musculus [13] was inactive. Besides, the Time in the data set with Mus musculus [3] came to 172 s. For the same compound, the MED in the data set on Mus musculus [5] and with Mus musculus [6] was 100 mg/kg in each case. Moreover, the logP in data set [8] came out at 5.24.
Regarding `COc1ccc(/C=N/NC(=S)Nc2nc3ccc(Cl)cc3s2)cc1`, the result in the data set with Mus musculus [14], in the data set with Mus musculus [12] and in the data set on Mus musculus [13] was inactive. Besides, the minimal effective dose in the data set with Mus musculus [2] is 300 mg/kg. Besides, in the data set with Mus musculus [3], the Time was determined as 181 s. The MED was 100 mg/kg with Mus musculus [5] and 300 mg/kg in the data set on Mus musculus [6]. In addition, the logP in [8] turned out to be 5.16.
Regarding `Oc1ccc(/C=N/NC(=S)Nc2nc3ccc(Cl)cc3s2)cc1`, the minimal effective dose in the data set with Mus musculus [1] and in the data set with Mus musculus [7] was 100 mg/kg throughout. In addition, the outcome in the data set on Mus musculus [11] and with Mus musculus [12] was inactive. Besides, in the data set on Mus musculus [3], the Time was 169 s. For the same compound, in data set [8], the log partition coefficient (logP) stood at 4.78. The MED with Mus musculus [6] was 100 mg/kg. In addition, the Activity entry with Mus musculus [9] is “Non-toxic”.
Take `O=C(CNc1ccc(F)cc1)Nc1nc2ccc(Cl)cc2s1`: the minimal effective dose with Mus musculus [1] was 100 mg/kg; in the data set on Mus musculus [2], 100 mg/kg; in the data set on Mus musculus [4] it was 300 mg/kg; in the data set with Mus musculus [7], 100 mg/kg. Also, the Time with Mus musculus [3] turned out to be 169 s. In data set [8], this compound showed a logP of 3.88. The Activity entry with Mus musculus [9] and in the data set with Mus musculus [10] was “Non-toxic” in each case.
